Test results as given in US9062041B2 (Bayer Intellectual Property GmbH, priority 2011, dated 2015).
pIC50: −log10 of the molar value.

Tests used:
Type in all cases: cell-based
[1] = biological target: EP4 subtype of the human PGE2 receptor (Homo sapiens, UniProt P35408); experiment: cAMP antagonism test on the human EP4 receptor (HTRF cAMP detection); details: selectivity towards hEP4, IC50 measured by cAMP antagonism test
Text: 2. Detection of Antagonism to the Human Prostaglandin E2 (Subtype EP4) Receptor Signal
(§1) The binding of PGE2 to the EP4 subtype of the human PGE2 receptor induces the activation of membrane-located adenylate cyclases and leads to the formation of cAMP. In the presence of the phosphodiesterase inhibitor IBMX, the cAMP accumulated owing to this stimulation and released by cell lysis is used in a competitive detection method. In this test, the cAMP present in the lysate competes with a fluorescence-labelled cAMP (cAMP-d2) for binding to an Eu cryptate-labelled anti-cAMP antibody.
(§2) In the absence of cellular cAMP a maximal signal is produced, which is attributable to the binding of this cAMP-d2 molecule to the antibody. After excitation of the […] at 337 nm, there is a fluorescence resonance energy transfer (FRET) to the Eu cryptate molecules of the anti-cAMP antibody (labelled therewith), followed by a long-lasting emission signal at 665 nm (and at […]). Both signals are measured in a suitable measurement instrument with a time delay, i.e. after decay of the background fluorescence. Any increase in the low FRET signal caused by prostaglandin E2 administration (measured as well ratio change=emission665 nm/emission620 nm*10000) indicates the action of antagonists.
2.2.1. Test for Antagonism (Data Per Well of a 384-Well Plate):
(§3) To a test plate with the substance solutions already added (0.05 μl; 100% DMSO, concentration range from 0.8 nM-16.5 μM) were added 4 μl of a cAMP-d2/cell suspension (312500 cells/ml). After a 20-minute preincubation at room temperature (RT), 2 μl of a 3×PGE2 solution (0.3 nM, in PBS-IBMX) were added and incubated in the presence of the agonist for a further 60 mins at RT (volume: ˜6 μl). Next the reaction was stopped by addition of 2 μl of lysis buffer and incubated for a further 20 mins at RT before the actual measurement (volume: ˜8 μl).

[2] = biological target: T1, human PGD receptor (Homo sapiens, UniProt Q13258); experiment: cAMP antagonism test on the human prostaglandin D receptor (HTRF cAMP detection); details: selectivity towards hDP, IC50 measured by cAMP antagonism test
T1 sequence (Q13258 1-359): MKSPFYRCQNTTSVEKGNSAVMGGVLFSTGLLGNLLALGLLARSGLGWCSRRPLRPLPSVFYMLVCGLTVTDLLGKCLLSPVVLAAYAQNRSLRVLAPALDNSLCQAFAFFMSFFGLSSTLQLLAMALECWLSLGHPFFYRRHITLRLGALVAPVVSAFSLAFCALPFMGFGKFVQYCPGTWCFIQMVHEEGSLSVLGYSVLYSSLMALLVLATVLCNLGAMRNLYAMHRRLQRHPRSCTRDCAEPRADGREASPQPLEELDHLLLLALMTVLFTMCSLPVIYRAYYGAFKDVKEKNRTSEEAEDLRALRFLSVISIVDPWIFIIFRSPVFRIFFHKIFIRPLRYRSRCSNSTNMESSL
Text: 3. Detection of Antagonism to the Human Prostaglandin D Receptor Signal
as §1, with “of prostaglandin D2” for “of PGE2”, “the” for “the EP4 subtype of the”, “human PGD” for “human PGE2”
as §2, with “cellular cAMP,” for “cellular cAMP”
3.2.1. Test for Antagonism (Data Per Well of a 384-Well Plate):
as §3, with “(625000” for “(312500”, “3×PGD2” for “3×PGE2”, “(6” for “(0.3”, “30” for “60”

[3] = biological target: EP2 subtype of the human PGE2 receptor (Homo sapiens, UniProt P43116); experiment: cAMP antagonism test on the human EP2 receptor (HTRF cAMP detection); details: hEP2 receptor, read-out: Antagonism hEP2 IC50
Text: 1. Detection of Antagonism to the Human Prostaglandin E2 (Subtype EP2) Receptor Signal
as §1, with “EP2” for “EP4”
as §2, with “cellular cAMP,” for “cellular cAMP”
1.2.1. Test for Antagonism (Data Per Well of a 384-Well Plate):
as §3, with “(625000” for “(312500”, “(1.5” for “(0.3”

Chain of EP4 subtype of the human PGE2 receptor (P35408 whole entry): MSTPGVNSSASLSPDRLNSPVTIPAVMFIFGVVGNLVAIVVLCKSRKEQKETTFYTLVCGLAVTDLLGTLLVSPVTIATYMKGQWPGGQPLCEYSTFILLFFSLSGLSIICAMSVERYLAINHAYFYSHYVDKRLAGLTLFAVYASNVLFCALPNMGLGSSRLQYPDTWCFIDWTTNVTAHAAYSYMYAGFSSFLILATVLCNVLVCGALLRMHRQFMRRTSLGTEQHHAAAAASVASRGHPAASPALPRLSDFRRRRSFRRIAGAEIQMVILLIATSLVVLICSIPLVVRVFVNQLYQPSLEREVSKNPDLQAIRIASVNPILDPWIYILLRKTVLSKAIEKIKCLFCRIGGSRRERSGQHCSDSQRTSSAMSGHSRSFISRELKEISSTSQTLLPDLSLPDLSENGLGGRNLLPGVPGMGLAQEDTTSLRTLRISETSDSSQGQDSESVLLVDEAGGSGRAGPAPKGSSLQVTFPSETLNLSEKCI
Chain of EP2 subtype of the human PGE2 receptor (P43116 whole entry): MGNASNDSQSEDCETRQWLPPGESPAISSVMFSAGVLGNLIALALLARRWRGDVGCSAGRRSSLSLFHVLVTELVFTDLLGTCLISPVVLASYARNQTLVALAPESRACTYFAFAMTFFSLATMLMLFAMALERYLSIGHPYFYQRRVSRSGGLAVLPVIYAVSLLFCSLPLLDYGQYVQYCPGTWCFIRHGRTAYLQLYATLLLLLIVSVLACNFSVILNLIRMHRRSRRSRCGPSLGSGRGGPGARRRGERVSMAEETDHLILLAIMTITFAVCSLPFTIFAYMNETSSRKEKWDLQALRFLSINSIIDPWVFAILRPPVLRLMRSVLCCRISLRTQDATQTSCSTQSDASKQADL

| Selectivity hEP2/hEP4 [1] | Selectivity hEP2/hDP [2] | pIC50 [3] | Structure (SMILES) |
| --- | --- | --- | --- |
| xxx (xxx > 100) | xxx (xxx > 100) | 7.54 | COCCNC(=O)c1ccc2nn(CC3CN(C(=O)c4ccc(C(F)(F)F)c(F)c4)C3)cc2c1C [Example 122, 2-({1-[3-fluoro-4-(trifluoromethyl)benzoyl]azetidin-3-yl}methyl)-N-(2-methoxy-ethyl)-4-methyl-2H-indazol-5-carboxamide] |
| xxx (xxx > 100) | xxx (xxx > 100) | 7.02 | Cc1cc2nn(CC3CCN(C(=O)c4ccc(Cl)cc4)CC3)cc2cc1C(=O)NCCN1CCOCC1 [Example 74, 2-{[1-(4-chlorobenzoyl)piperidin-4-yl]methyl}-6-methyl-N-(2-morpholinoethyl)-2H-indazol-5-carboxamide] |
| xxx (xxx > 100) | xxx (xxx > 100) | 8.27 | COCCNC(=O)c1ccc2nn(CC3CCN(C(=O)c4ccc(-c5ccc(F)cc5OC)cc4)CC3)cc2c1C [Example 380, 2-({1-[(4′-fluoro-2′-methoxybiphenyl-4-yl)carbonyl]piperidin-4-yl}methyl)-N-(2-methoxyethyl)-4-methyl-2H-indazol-5-carboxamide] |
| xxx (xxx > 100) | xxx (xxx > 100) | 7.76 | COCCNC(=O)c1ccc2nn(CC3CCN(C(=O)c4ccc(C)cc4F)CC3)cc2c1C [Example 9, 2-{[1-(2-fluoro-4-methylbenzoyl)piperidin-4-yl]methyl}-N-(2-methoxyethyl)-4-methyl-2H-indazol-5-carboxamide] |
| xxx (xxx > 100) | xxx (xxx > 100) | 7.01 | Cc1cc2nn(CC3CN(C(=O)c4ccc(Oc5ccc(F)cc5)cc4)C3)cc2cc1C(=O)NCCSC(F)(F)F [Example 199, 2-({1-[4-(4-fluorophenoxy)benzoyl]azetidin-3-yl}methyl)-6-methyl-N-{2-[(trifluoromethyl)sulphanyl]ethyl}-2H-indazol-5-carboxamide] |
| xxx (xxx > 100) | xxx (xxx > 100) | 7.17 | COCCNC(=O)c1ccc2nn(CC3CCN(C(=O)c4ccc(N5CCOCC5)cc4)CC3)cc2c1C [Example 4, N-(2-methoxyethyl)-4-methyl-2-{[1-(4-morpholinobenzoyl)piperidin-4-yl]methyl}-2H-indazol-5-carboxamide] |
| xxx (xxx > 100) | xxx (xxx > 100) | 7.69 | COCCNC(=O)c1ccc2nn(CC3CCN(C(=O)c4ccc(-c5ccc(C(C)(C)O)cc5)cc4)CC3)cc2c1C [Example 388, 2-[(1-{[4′-(1-hydroxy-1-methylethyl)biphenyl-4-yl]carbonyl}piperidin-4-yl)-methyl]-N-(2-methoxyethyl)-4-methyl-2H-indazol-5-carboxamide] |
| xxx (xxx > 100) | xxx (xxx > 100) | 7.10 | Cc1c(C(=O)NCC(F)(F)F)ccc2nn(CC3CCN(C(=O)c4ccc(Br)cc4)CC3)cc12 [Example 316, 2-{[1-(4-bromobenzoyl)piperidin-4-yl]methyl}-4-methyl-N-(2,2,2-trifluoro-ethyl)-2H-indazol-5-carboxamide] |
| xx (xx: 10-100) | xx (xx: 10-100) | 6.57 | Cc1cc2nn(CC3CN(C(=O)c4ccc(Cl)cc4)C3)cc2cc1C(=O)NCC(F)(F)F [Example 190, 2-{[1-(4-chlorobenzoyl)azetidin-3-yl]methyl}-6-methyl-N-(2,2,2-trifluoroethyl)-2H-indazol-5-carboxamide] |
| xxx (xxx > 100) | xxx (xxx > 100) | 7.13 | COCCNC(=O)c1ccc2nn(CC3CCN(C(=O)c4ccc(C(C)(C)O)cc4)CC3)cc2c1C [Example 334, 2-({1-[4-(1-hydroxy-1-methylethyl)benzoyl]piperidin-4-yl}methyl)-N-(2-methoxyethyl)-4-methyl-2H-indazol-5-carboxamide] |
| xxx (xxx > 100) | xxx (xxx > 100) | 7.56 | COc1ccc2cc(C(=O)N3CC(Cn4cc5c(C)c(C(=O)NCC(F)(F)F)ccc5n4)C3)n(C)c2c1 [Example 169, 2-({1-[(6-methoxy-1-methyl-1H-indol-2-yl)carbonyl]azetidin-3-yl}methyl)-4-methyl-N-(2,2,2-trifluoroethyl)-2H-indazol-5-carboxamide] |
| xx (xx: 10-100) | xx (xx: 10-100) | 6.65 | Cc1c(C(=O)NCC2COCCO2)ccc2nn(CC3CCN(C(=O)c4ccc(Cl)cc4)CC3)cc12 (single isomer, unassigned) [Example 414, (R or S)-2-{[1-(4-chlorobenzoyl)piperidin-4-yl]methyl}-N-(1,4-dioxan-2-ylmethyl)-4-methyl-2H-indazol-5-carboxamide] |
| xxx (xxx > 100) | xxx (xxx > 100) | 7.62 | COCCNC(=O)c1ccc2nn(CC3CCN(C(=O)c4cccc(C(F)(F)F)c4)CC3)cc2c1C [Example 26, N-(2-methoxyethyl)-4-methyl-2-({1-[3-(trifluoromethyl)-benzoyl]piperidin-4-yl}methyl)-2H-indazol-5-carboxamide] |
| xxx (xxx > 100) | xxx (xxx > 100) | 7.51 | Cc1c(C(=O)NCC2CCC2)ccc2nn(CC3CCN(C(=O)c4ccc(Cl)cc4)CC3)cc12 [Example 250, 2-{[1-(4-chlorobenzoyl)piperidin-4-yl]methyl}-N-(cyclobutylmethyl)-4-methyl-2H-indazol-5-carboxamide] |
